According to US20090306576A1, “System for Transmembrane Administration of a Permeant and Method for Administering a Permeant” (Pantec Biosolutions AG, priority 2005, published 2009):

Assay: Serum concentration over time after transdermal application of the drug patch on microporated skin (FIG. 10a, 10b)
Assay type: in vivo
Conditions: over a short period of about two hours
Description: The drug is entering the permeation surface by passive diffusion. The amount of drug entering the permeation surface is mainly determined by the permeation surface A(t) over time, as long as the patch 5 provides a sufficient amount of drug. Preferably the patch 5 is able to provide much larger quantities of drug than the permeation surface A(t) is able to absorb. Preferably the patch 5 is able to provide a sufficient concentration level of the permeant at the permeation surface over a period of time during with the permeant is applied. Therefore, the serum concentration as a function of time can be determined by an appropriate poration of the skin 1 with an initial microporation.
FIG. 10a to 10b show the administration of the same drug, for example 100 mg acetylsalicylic acid, the drug being arranged on the skin 1 as disclosed in FIG. 3c. Depending on the permeation surface A(t) as a function of time, the level of the serum concentration as well as the time period within which the drug is released, can be predescribed. In FIG. 10a the permeation surface A(t), not shown in detail, is chosen such that the maximal serum concentration is about 25 g/l over a short period of time of about two hours. […]

Structure (SMILES): CC(=O)Oc1ccccc1C(=O)O [acetylsalicylic acid]
- maximal serum concentration (FIG. 10a, 100 mg acetylsalicylic acid on porated skin (transdermal application TD)): about 25 g/l
- maximal serum concentration (FIG. 10b, fast application (turbo), 100 mg acetylsalicylic acid on porated skin): about 30 g/l
